Numbers after ± are expanded uncertainties.
Experiment: xn = mol fraction of the nth substance listed
Details: 303.15 K, 92.3 kPa, Liquid; for viscosity: Concentric cylinders viscometry; for speed of sound: Frequency=3 MHz, Single path-length method; for mass density: Vibrating tube method

OCCOCCOCCO [triethylene glycol] + O
Details	mass density [kg/m3]	speed of sound [m/s]	viscosity [mPa·s]
x1 = 0.0101	1006.7 ± 3.2	1546.6 ± 1.8	–
x1 = 0.0196	1016.05 ± 3.2	1577.2 ± 1.8	–
x1 = 0.025	1021.12 ± 3.2	–	1.425 ± 0.2
x1 = 0.029	1025.03 ± 3.2	1604.2 ± 1.8	–
x1 = 0.0381	1032.5 ± 3.2	1626.5 ± 1.8	–
x1 = 0.0489	1040.16 ± 3.2	–	2.135 ± 0.3
x1 = 0.0496	1041.07 ± 3.3	1650.4 ± 1.8	–
x1 = 0.0601	1048.1 ± 3.3	1668.4 ± 1.8	–
x1 = 0.0689	1053.32 ± 3.3	1680.7 ± 1.8	–
x1 = 0.0754	1056.69 ± 3.3	–	3.109 ± 0.44
x1 = 0.0801	1059.3 ± 3.3	1693.4 ± 1.8	–
x1 = 0.0905	1064.27 ± 3.3	1702.5 ± 1.8	–
x1 = 0.0993	1068.24 ± 3.3	–	4.145 ± 0.58
x1 = 0.0996	1068.21 ± 3.3	1708.8 ± 1.8	–
x1 = 0.1479	1083.73 ± 3.3	1722.1 ± 1.8	–
x1 = 0.15	1085.03 ± 3.3	–	6.732 ± 0.94
x1 = 0.1993	1094.5 ± 3.3	–	9.456 ± 1.3
x1 = 0.2004	1093.95 ± 3.3	1716.5 ± 1.8	–
x1 = 0.2462	1099.63 ± 3.3	1705.3 ± 1.8	–
x1 = 0.2526	1100.4 ± 3.3	–	12.39 ± 1.7
x1 = 0.2998	1103.65 ± 3.3	–	14.86 ± 2.1
x1 = 0.3004	1103.99 ± 3.3	1690.6 ± 1.8	–
x1 = 0.3474	1106.59 ± 3.3	1678.1 ± 1.8	–
x1 = 0.3539	1106.3 ± 3.3	–	17.36 ± 2.4
x1 = 0.3948	1108.5 ± 3.3	1666.6 ± 1.9	–
x1 = 0.4009	1108.18 ± 3.3	–	19.33 ± 2.7
x1 = 0.4467	1110.04 ± 3.3	1655.4 ± 1.9	–
x1 = 0.4492	1109.87 ± 3.3	–	21.06 ± 2.9
x1 = 0.4992	1111.36 ± 3.3	–	22.58 ± 3.2
x1 = 0.5021	1111.28 ± 3.3	1644.9 ± 1.9	–
x1 = 0.548	1112.08 ± 3.3	1637.5 ± 1.9	–
x1 = 0.5484	1112.51 ± 3.3	–	23.9 ± 3.3
x1 = 0.5923	1112.73 ± 3.3	1631 ± 1.9	–
x1 = 0.5996	1113.32 ± 3.3	–	24.96 ± 3.5
x1 = 0.6442	1113.33 ± 3.3	1624.5 ± 1.9	–
x1 = 0.6506	1113.74 ± 3.3	–	25.86 ± 3.6
x1 = 0.701	1113.89 ± 3.3	–	26.76 ± 3.7
x1 = 0.7095	1113.94 ± 3.3	1617.7 ± 1.9	–
x1 = 0.7531	1114.3 ± 3.3	1613.4 ± 1.9	–
x1 = 0.7567	1113.98 ± 3.3	–	27.55 ± 3.9
x1 = 0.7859	1114.55 ± 3.3	1610.5 ± 2	–
x1 = 0.8035	1114.18 ± 3.3	–	28.08 ± 3.9
x1 = 0.8387	1114.87 ± 3.3	1606.6 ± 2	–
x1 = 0.8406	1114.51 ± 3.3	–	28.48 ± 4
x1 = 0.8981	1115.27 ± 3.3	–	28.88 ± 4
x1 = 0.9031	1115.25 ± 3.3	1602 ± 2	–
x1 = 0.9181	1115.31 ± 3.3	1601.3 ± 2	–
x1 = 0.9344	1115.4 ± 3.3	1600.4 ± 2	–
x1 = 0.9489	1115.8 ± 3.3	–	29.26 ± 4.1
x1 = 0.9569	1115.5 ± 3.3	1599 ± 2	–
x1 = 0.9782	1115.59 ± 3.3	1597.9 ± 2	–
x1 = 1	1115.7 ± 3	1596.6 ± 2	29.59 ± 4.1

From the NIST ThermoML archive (doi:10.1016/j.jct.2018.02.022)
